Laboratory results published in publication doi:10.1101/2025.11.04.686469, “Discovery of Host-Directed Small Molecules with Broad Anti-Leishmanial Efficacy” (bioRxiv, 2025).

What was measured:
[1] = test system: intracellular L. donovani amastigotes; assay: Luminescent-based evaluation of intracellular anti-leishmanial activity in THP-1 macrophages; format: cell-based, Leishmania donovani; conditions: intracellular Leishmania donovani in THP1 macrophages, luminescence assay (Supplemental Table 2); read-out: Lum IC50
Method: Luminescent strains, L. donovani LV82 expressing firefly luciferase (a kind gift from Dr. Abhay Satoskar, Ohio State University) and L. mexicana (NR-51210, ATCC) expressing renilla luciferase were used to evaluate the effect of the compounds in intracellular and extracellular conditions. Wild-type L. donovani LV82 (ATCC) were used for Giemsa staining based experiments. All parasites were cultured at 25°C and 5% CO2 in M199 media (Corning) supplemented with 10% FBS, 1% penicillin/streptomycin, and hemin (0.01 mg/mL), and used in experiments up to passage 15.
THP-1 cells were seeded in a 96 well plate (25,000 cells/well) overnight then differentiated with 150 nM phorbol 12-myristate 13-acetate (PMA) over 72 hours (Supplemental Figure 1). […] Briefly, promastigotes of a known cell density were resuspended in RPMI media (with 10% FBS, 1% P/S and 0.05 mM β-mercaptoethanol) and incubated with adhered THP-1 cells over 18 hours. After infection, cells were washed three times with fresh media to remove extracellular promastigotes.
Infected macrophages were then treated with compounds solubilized in DMSO ranging from 0.1-10 μM in concentrations. After 72 hours of treatment, the viability of the amastigotes within macrophages was determined using Promega firefly luminescence assay (Cat E1500) or Pierce Renilla luciferase assay (Cat 16166) for L. donovani and L. mexicana strains, respectively. Briefly, media was removed, and cells were lysed with the assay lysis buffer. The luciferase substrate was then incubated with the lysed cells for 10 min at room temperature and luminescence of live Leishmania was measured in a white opaque 96 well plate using a Biotek plate reader.

THP-1 macrophages = assay: Effect of compounds on host cell viability (MTT); format: cell-based; conditions: read-out: 24h LC50; THP1 macrophages, 24-hour incubation, MTT assay (Supplemental Table 2)
Procedure, shortened: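 THP-1 cells were differentiated with 150 nM PMA for 72 h, then exposed to compounds at 1–50 μM for 24 h; selected compounds were also run at 1–300 μM for 72 h. MTT at 0.5 mg/mL was added for 2 h at 37 °C, and formazan absorbance was read at 560 nm minus 670 nm.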

| SMILES | IC50 [1] | CC50 (THP-1 macrophages) |
| --- | --- | --- |
| FC(F)(F)c1cc(-c2ccc(-c3ccc(S(F)(F)(F)(F)F)cc3)cc2)n(-c2ccc(N3CCC(NCc4ccccc4)C3)cc2)n1 (stereo not shown) [Compound 107] | > 10 µM | > 50 µM |
| Fc1cccc(CNC2CCN(c3ccc(-n4nc(C(F)(F)F)cc4-c4ccc(-c5ccc(S(F)(F)(F)(F)F)cc5)cc4)cc3)C2)c1 (stereo not shown) [Compound 108] | > 10 µM | > 50 µM |
| NCC(=O)NC1CCN(c2ccc(-n3nc(C(F)(F)F)cc3-c3ccc(-c4ccc(C(F)(F)F)cc4)cc3)cc2)CC1 [Compound 111] | 2.9 µM | 5.2 µM |
| FC(F)(F)c1ccc(-c2ccc(-c3cc(C(F)(F)F)nn3-c3ccc(N4CC(NCc5ccccc5)C4)cc3)cc2)cc1 [Compound 112] | > 10 µM | 6.3 µM |
| FC(F)(F)c1ccc(-c2ccc(-c3cc(C(F)(F)F)nn3-c3ccc(NC4CN(Cc5ccccc5)C4)cc3)cc2)cc1 [Compound 113] | > 10 µM | 19 µM |
| FC(F)(F)c1ccc(-c2ccc(-c3cc(C(F)(F)F)nn3-c3ccc(NC4CCN(Cc5ccccc5)C4)cc3)cc2)cc1 (stereo not shown) [Compound 114] | > 10 µM | 13.6 µM |
| FC(F)(F)c1ccc(-c2ccc(-c3cc(C(F)(F)F)nn3-c3ccc(NC4CCN(Cc5ccccc5)CC4)cc3)cc2)cc1 [Compound 115] | 7.4 µM | 13.2 µM |
| FC(F)(F)c1cn(-c2ccc(NCC3CC3)cc2)c(-c2ccc(-c3ccccc3)cc2)n1 [Compound 116] | 9.9 µM | > 50 µM |
| O=C(CCCCBr)N1CCC(Nc2ccc(-n3nc(C(F)(F)F)cc3-c3ccc(-c4ccc(C(F)(F)F)cc4)cc3)cc2)CC1 [Compound 117] | 6.1 µM | > 50 µM |
| NCC(=O)N1CC(Nc2ccc(-n3nc(C(F)(F)F)cc3-c3ccc(-c4ccc(C(F)(F)F)cc4)cc3)cc2)C1 [Compound 118] | 2.6 µM | 6.2 µM |
| NCC(=O)NC1CCN(c2ccc(-n3nc(C(F)(F)F)cc3-c3ccc(-c4ccc(C(F)(F)F)cc4)cc3)cc2)C1 (stereo not shown) [Compound 119] | > 10 µM | 37.2 µM |
| FC(F)(F)c1ccc(-c2ccc(-c3cc(C(F)(F)F)nn3-c3ccc(N4CCC(NCc5ccc(Cl)c(C(F)(F)F)c5)CC4)cc3)cc2)cc1 [Compound 120] | > 10 µM | > 50 µM |
| FC(F)(F)c1ccc(-c2ccc(-c3cc(C(F)(F)F)nn3-c3ccc(NC4CCN(Cc5ccc(Cl)c(C(F)(F)F)c5)C4)cc3)cc2)cc1 (stereo not shown) [Compound 126] | > 10 µM | > 50 µM |
| CC(C)(C)OC(=O)N[C@@H]1CCN(c2ccc(-n3nc(C(F)(F)F)cc3-c3ccc(-c4ccc(C(F)(F)F)cc4)cc3)cc2)C1 [Compound 127] | > 10 µM | > 50 µM |
| CC(C)(C)OC(=O)NC1CCN(c2ccc(-n3nc(C(F)(F)F)cc3-c3ccc(-c4ccc(C(F)(F)F)cc4)cc3)cc2)C1 (stereo not shown) [Compound 128] | > 10 µM | > 50 µM |
| FC(F)(F)c1ccc(-c2cnnn2-c2ccc(Br)cc2)cc1 [Compound 131] | > 10 µM | 37.2 µM |
| Cc1nn(-c2ccc(Br)cc2)c2ccccc12 [Compound 132] | > 10 µM | > 50 µM |
| FC(F)(F)c1ccc(-c2ccc3nc[nH]c3c2)cc1 [Compound 135] | > 10 µM | > 50 µM |
| FC(F)(F)c1ccc(-c2ccc3ncn(-c4ccc(Br)cc4)c3c2)cc1 [Compound 136] | > 10 µM | > 50 µM |
| NC1CCN(c2ccc(-n3nncc3-c3ccc(-c4ccc(C(F)(F)F)cc4)cc3)cc2)C1 (stereo not shown) [Compound 137] | 4.4 µM | 7.3 µM |
| O=[N+]([O-])c1ccc(-n2cnc3ccc(Br)cc32)cc1 [Compound 138] | > 10 µM | > 50 µM |
| O=[N+]([O-])c1ccc(-n2cnc3cc(Br)ccc32)cc1 [Compound 139] | > 10 µM | > 50 µM |

| SMILES | IC50 [1] | CC50 (THP-1 macrophages) |
| --- | --- | --- |
| CC(C)(C)OC(=O)NC1CCN(c2ccc(-n3nc(C(F)(F)F)cc3-c3ccc(-c4ccc(C(F)(F)F)cc4)cc3)cc2)C1 (stereo not shown) [Compound 140] | > 10 µM | > 50 µM |
| NC1CCN(c2ccc(-n3nc(C(F)(F)F)c4ccc(-c5ccc(C(F)(F)F)cc5)cc43)cc2)C1 (stereo not shown) [Compound 141] | 3.6 µM | 7.7 µM |
| CC(C)(C)OC(=O)N1CCC(Oc2ccc(-n3nc(C(F)(F)F)cc3-c3ccc(-c4ccc(C(F)(F)F)cc4)cc3)cc2)C1 (stereo not shown) [Compound 142] | > 10 µM | > 50 µM |
| O=[N+]([O-])c1ccc(-c2cc(C(F)(F)F)nn2-c2ccc(Br)cc2)cc1 [Compound 143] | > 10 µM | > 50 µM |
| FC(F)(F)c1ccc(-c2ccc(-c3cc(C(F)(F)F)nn3-c3ccc(OC4CCNC4)cc3)cc2)cc1 (stereo not shown) [Compound 144] | > 10 µM | 5.4 µM |
| FC(F)(F)c1ccc(-c2ccc(-c3cc(C(F)(F)F)nn3-c3ccc(OC4CCN(Cc5ccccc5)C4)cc3)cc2)cc1 (stereo not shown) [Compound 145] | > 10 µM | > 50 µM |
| CC(C)(C)c1ccc(-c2nc(C(F)(F)F)cn2-c2ccc([N+](=O)[O-])cc2)cc1 [Compound 146] | 4.4 µM | > 50 µM |
| Nc1ccc(-n2cnc3ccccc32)cc1 [Compound 147] | > 10 µM | > 50 µM |
| CC(C)(C)OC(=O)NCC(=O)Nc1ccc(-n2cnc3ccccc32)cc1 [Compound 148] | > 10 µM | > 50 µM |
| CC(C)(C)c1ccc(-c2nc(C(F)(F)F)cn2-c2ccc(N)cc2)cc1 [Compound 149] | 9.1 µM | 28.8 µM |
| NCC(=O)Nc1ccc(-n2cnc3ccccc32)cc1 [Compound 150] | > 10 µM | > 50 µM |
| CC(C)(C)OC(=O)NCC(=O)Nc1ccc(-n2cc(C(F)(F)F)nc2-c2ccc(C(C)(C)C)cc2)cc1 [Compound 151] | > 10 µM | 31.8 µM |
| Nc1ccc(-c2cc(C(F)(F)F)nn2-c2ccc(-c3ccc(C(F)(F)F)cc3)cc2)cc1 [Compound 152] | > 10 µM | 43.6 µM |
| O=[N+]([O-])c1ccc(-n2cc(C(F)(F)F)nc2-c2ccc(-c3ccc(C(F)(F)F)cc3)cc2)cc1 [Compound 154] | 2.9 µM | 25.5 µM |
| NCC(=O)Nc1ccc(-c2cc(C(F)(F)F)nn2-c2ccc(-c3ccc(C(F)(F)F)cc3)cc2)cc1 [Compound 155] | 4 µM | 6.1 µM |
| Nc1ccc(-n2cc(C(F)(F)F)nc2-c2ccc(-c3ccc(C(F)(F)F)cc3)cc2)cc1 [Compound 156] | 5.8 µM | 20.8 µM |
| CC(C)(C)c1ccc(-c2nc(C(F)(F)F)cn2-c2ccc(NC(=O)CN)cc2)cc1 [Compound 157] | > 10 µM | 27.6 µM |
| NC1CCN(c2ccc(-n3nc(C(F)(F)F)cc3-c3ccncc3)cc2)C1 (stereo not shown) [Compound 168] | 10 µM | > 50 µM |
| NC1CN(c2ccc(-n3nc(C(F)(F)F)cc3-c3ccc(-c4ccc(C(F)(F)F)cc4)cc3)cc2)C1 [Compound 172] | > 10 µM | > 50 µM |
| CS(=O)(=O)c1ccc(-n2nc(C(F)(F)F)cc2-c2ccc(-c3ccccc3)cc2)cc1 [Compound 174] | > 10 µM | > 50 µM |
| COC(=O)c1ccc(-n2cc(C(F)(F)F)nc2-c2ccc(-c3ccc(C(F)(F)F)cc3)cc2)c(F)c1 [Compound 175] | > 10 µM | > 50 µM |
| O=C(O)c1ccc(-n2cc(C(F)(F)F)nc2-c2ccc(-c3ccc(C(F)(F)F)cc3)cc2)c(F)c1 [Compound 176] | > 10 µM | > 50 µM |
